Key:
Assay in all cases: KINOMEscan competition binding
Details in all cases: compound 10.0 µM
BMPR1B (human) = BMPR1B (human) (UniProt O00238)
CDK19 (human) = CDK19 (human) (UniProt Q9BWU1)
CDKL2 (human) = CDKL2 (human) (UniProt Q92772)
CIT (human) = CIT (human) (UniProt O14578)
CSNK1A1L (human) = CSNK1A1L (human) (UniProt Q8N752)
CSNK2A1 (human) = CSNK2A1 (human) (UniProt P68400)
DYRK1B (human) = DYRK1B (human) (UniProt Q9Y463)
[1] = test system: EGFR (human), P00533 [747-751 del / S ins]
EPHA2 (human) = EPHA2 (human) (UniProt P29317)
FGFR2 (human) = FGFR2 (human) (UniProt P21802)
[2] = biological target: JAK2 JH1 catalytic (human) (UniProt O60674)
KIT (human) = KIT (human) (UniProt P10721)
[3] = test system: KIT (human), P10721 [V559D/V654A]
MAK (human) = MAK (human) (UniProt P20794)
MAP2K3 (human) = MAP2K3 (human) (UniProt P46734)
MAP2K3 (human), sequence (P46734 whole entry, looked up): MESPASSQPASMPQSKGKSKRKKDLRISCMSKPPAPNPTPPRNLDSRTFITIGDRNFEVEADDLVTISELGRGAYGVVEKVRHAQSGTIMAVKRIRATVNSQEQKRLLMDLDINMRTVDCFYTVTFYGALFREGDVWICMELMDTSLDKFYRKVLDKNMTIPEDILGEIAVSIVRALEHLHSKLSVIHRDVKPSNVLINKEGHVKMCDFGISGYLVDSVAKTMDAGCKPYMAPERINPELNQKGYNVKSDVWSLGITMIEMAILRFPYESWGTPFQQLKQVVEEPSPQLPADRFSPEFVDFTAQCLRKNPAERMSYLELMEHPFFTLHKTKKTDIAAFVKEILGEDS

MAP3K9 (human) = MAP3K9 (human) (UniProt P80192)
MAPK13 (human) = MAPK13 (human) (UniProt O15264)
MAPK9 (human) = MAPK9 (human) (UniProt P45984)
MARK3 (human) = MARK3 (human) (UniProt P27448)
MARK3 (human), sequence (P27448 whole entry, looked up): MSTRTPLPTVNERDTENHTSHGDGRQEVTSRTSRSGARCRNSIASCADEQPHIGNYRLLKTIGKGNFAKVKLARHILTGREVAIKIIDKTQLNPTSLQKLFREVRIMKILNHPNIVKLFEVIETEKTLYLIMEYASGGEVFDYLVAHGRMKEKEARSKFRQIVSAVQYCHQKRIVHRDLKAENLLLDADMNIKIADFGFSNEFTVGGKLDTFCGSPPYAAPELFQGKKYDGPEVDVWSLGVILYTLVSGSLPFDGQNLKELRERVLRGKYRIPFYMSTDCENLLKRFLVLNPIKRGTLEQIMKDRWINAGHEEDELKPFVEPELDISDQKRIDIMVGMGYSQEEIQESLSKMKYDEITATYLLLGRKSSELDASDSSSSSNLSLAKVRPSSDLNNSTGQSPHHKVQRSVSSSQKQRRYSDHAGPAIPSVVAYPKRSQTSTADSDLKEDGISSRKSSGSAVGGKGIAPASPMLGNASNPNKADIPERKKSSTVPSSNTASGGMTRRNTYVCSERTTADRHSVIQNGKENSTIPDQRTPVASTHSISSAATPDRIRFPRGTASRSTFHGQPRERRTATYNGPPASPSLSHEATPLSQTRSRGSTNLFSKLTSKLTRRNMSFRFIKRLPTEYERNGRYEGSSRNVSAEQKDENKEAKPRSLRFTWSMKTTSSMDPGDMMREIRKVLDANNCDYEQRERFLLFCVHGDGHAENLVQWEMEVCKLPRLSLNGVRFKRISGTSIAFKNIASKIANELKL

MINK1 (human) = MINK1 (human) (UniProt Q8N4C8)
MKNK1 (human) = MKNK1 (human) (UniProt Q9BUB5)
MST4 (human) = MST4 (human) (UniProt Q9P289)
NEK5 (human) = NEK5 (human) (UniProt Q6P3R8)
NUAK1 (human) = NUAK1 (human) (UniProt O60285)
PDPK1 (human) = PDPK1 (human) (UniProt O15530)
PHKG1 (human) = PHKG1 (human) (UniProt Q16816)
ROS1 (human) = ROS1 (human) (UniProt P08922)
RPS6KA1 KD2 (human) = RPS6KA1 KD2 (human) (UniProt Q15418)
SGK110 (human) = SGK110 (human) (UniProt P0C264)
SLK (human) = SLK (human) (UniProt Q9H2G2)
STK32B (human) = STK32B (human) (UniProt Q9NY57)
STK39 (human) = STK39 (human) (UniProt Q9UEW8)
TGFBR1 (human) = TGFBR1 (human) (UniProt P36897)
TGFBR1 (human), sequence (P36897 whole entry, looked up): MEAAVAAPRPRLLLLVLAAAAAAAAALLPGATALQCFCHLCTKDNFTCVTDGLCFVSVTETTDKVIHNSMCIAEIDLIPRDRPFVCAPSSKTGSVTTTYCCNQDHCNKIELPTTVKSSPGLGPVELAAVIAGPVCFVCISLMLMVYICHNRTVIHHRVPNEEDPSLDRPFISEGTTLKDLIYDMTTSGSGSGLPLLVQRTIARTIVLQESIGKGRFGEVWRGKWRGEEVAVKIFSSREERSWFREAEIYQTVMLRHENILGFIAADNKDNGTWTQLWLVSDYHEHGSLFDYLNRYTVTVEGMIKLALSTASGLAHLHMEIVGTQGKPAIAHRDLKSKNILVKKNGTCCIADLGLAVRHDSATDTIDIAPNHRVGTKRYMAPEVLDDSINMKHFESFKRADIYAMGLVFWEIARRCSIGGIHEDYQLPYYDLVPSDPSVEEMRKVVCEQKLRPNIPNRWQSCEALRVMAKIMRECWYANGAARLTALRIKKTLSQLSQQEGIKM

TNK1 (human) = TNK1 (human) (UniProt Q13470)
TSSK1B (human) = TSSK1B (human) (UniProt Q9BXA7)
TSSK1B (human), sequence (Q9BXA7 whole entry, looked up): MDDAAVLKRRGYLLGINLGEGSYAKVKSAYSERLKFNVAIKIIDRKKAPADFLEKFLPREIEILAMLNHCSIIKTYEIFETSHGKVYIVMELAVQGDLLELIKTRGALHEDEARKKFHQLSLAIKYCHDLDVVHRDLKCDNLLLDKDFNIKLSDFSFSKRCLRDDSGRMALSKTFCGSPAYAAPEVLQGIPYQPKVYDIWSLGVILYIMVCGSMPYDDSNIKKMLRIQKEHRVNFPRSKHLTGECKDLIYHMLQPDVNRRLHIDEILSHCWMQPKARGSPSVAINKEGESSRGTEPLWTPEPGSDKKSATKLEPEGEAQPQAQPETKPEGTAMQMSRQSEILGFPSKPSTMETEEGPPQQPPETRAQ

ULK1 (human) = ULK1 (human) (UniProt O75385)
ULK3 (human) = ULK3 (human) (UniProt Q6PHR2)
WEE1 (human) = WEE1 (human) (UniProt P30291)
WEE1 (human), sequence (P30291 whole entry, looked up): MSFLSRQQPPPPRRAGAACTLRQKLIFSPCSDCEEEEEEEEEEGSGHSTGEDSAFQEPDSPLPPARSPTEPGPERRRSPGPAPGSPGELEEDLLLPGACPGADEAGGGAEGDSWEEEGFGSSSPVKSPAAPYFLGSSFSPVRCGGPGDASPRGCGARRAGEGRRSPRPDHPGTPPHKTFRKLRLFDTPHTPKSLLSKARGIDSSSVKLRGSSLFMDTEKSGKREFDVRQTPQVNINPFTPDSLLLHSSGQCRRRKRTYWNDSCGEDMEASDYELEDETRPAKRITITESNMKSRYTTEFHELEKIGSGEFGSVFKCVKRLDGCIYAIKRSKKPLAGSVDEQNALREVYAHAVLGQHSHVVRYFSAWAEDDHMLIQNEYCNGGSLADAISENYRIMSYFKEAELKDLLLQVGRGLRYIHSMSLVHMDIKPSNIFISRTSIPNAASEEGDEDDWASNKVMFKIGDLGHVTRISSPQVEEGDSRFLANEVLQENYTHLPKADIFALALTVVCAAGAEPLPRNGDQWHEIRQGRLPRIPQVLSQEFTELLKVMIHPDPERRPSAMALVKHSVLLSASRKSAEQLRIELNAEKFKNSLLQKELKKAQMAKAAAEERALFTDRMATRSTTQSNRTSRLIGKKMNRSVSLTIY

WEE2 (human) = WEE2 (human) (UniProt P0C1S8)
BRAF (human) = BRAF (human) (UniProt P15056)

CIT (human), sequence (O14578 whole entry, looked up): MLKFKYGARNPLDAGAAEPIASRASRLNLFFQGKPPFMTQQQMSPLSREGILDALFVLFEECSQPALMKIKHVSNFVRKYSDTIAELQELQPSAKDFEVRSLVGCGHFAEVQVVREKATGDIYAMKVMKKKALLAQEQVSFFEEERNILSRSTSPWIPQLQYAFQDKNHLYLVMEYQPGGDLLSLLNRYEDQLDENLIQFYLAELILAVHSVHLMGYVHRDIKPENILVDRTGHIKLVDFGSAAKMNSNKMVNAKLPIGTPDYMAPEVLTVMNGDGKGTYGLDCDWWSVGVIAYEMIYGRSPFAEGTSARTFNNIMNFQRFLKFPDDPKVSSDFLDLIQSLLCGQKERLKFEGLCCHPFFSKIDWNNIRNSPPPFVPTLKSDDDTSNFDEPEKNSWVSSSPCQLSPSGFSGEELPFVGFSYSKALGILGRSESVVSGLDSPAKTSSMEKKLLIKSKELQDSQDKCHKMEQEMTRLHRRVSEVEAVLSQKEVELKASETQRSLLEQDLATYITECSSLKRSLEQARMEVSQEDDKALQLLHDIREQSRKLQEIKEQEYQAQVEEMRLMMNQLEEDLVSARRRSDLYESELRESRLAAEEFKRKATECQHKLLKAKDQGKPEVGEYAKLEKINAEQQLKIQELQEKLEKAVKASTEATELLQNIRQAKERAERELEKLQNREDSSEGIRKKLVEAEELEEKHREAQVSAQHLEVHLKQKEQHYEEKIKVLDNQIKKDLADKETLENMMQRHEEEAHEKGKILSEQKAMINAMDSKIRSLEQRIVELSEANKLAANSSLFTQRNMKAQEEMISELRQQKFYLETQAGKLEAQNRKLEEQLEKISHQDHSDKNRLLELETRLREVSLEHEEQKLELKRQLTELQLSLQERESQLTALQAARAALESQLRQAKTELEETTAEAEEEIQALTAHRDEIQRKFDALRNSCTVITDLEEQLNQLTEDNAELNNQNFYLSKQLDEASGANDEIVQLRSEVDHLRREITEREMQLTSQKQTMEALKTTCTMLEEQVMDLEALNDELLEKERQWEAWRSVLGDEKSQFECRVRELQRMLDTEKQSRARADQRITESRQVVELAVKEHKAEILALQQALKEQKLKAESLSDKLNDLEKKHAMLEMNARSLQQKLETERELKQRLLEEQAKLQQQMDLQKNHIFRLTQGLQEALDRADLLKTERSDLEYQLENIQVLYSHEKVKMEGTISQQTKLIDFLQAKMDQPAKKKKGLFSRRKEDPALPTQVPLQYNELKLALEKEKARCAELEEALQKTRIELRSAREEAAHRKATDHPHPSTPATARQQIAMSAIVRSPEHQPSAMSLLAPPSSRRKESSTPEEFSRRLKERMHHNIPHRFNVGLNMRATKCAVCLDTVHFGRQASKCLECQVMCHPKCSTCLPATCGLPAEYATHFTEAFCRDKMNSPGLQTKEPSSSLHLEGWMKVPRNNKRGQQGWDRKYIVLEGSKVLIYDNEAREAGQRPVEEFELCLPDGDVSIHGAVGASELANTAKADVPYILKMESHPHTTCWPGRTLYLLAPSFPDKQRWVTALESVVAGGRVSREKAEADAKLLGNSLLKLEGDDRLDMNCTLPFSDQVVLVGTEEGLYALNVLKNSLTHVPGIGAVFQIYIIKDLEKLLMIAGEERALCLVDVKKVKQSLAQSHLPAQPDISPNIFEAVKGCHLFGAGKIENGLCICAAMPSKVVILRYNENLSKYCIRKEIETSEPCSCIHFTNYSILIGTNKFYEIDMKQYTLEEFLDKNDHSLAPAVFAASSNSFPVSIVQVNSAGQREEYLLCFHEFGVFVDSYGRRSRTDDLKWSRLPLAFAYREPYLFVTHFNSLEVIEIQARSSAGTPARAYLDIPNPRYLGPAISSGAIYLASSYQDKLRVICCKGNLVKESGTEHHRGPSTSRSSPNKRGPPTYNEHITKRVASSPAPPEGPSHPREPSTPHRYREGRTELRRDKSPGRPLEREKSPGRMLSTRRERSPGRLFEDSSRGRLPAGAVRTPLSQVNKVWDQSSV
CSNK1A1L (human), sequence (Q8N752 whole entry, looked up): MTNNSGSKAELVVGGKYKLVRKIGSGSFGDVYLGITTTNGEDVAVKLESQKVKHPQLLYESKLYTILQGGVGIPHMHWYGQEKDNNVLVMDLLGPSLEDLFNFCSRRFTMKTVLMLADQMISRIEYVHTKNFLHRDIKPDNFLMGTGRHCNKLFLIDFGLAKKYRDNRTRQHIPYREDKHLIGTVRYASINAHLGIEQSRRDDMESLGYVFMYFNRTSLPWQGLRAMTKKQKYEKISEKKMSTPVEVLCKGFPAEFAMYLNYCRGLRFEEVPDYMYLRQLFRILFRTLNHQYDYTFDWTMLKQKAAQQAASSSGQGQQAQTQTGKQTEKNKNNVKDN

`COc1cc2ncnc(-n3nc(-c4ccccn4)nc3N)c2cc1OC` gave a kinase still bound, per cent of control (BMPR1B (human)) of 14%, a kinase still bound, per cent of control (CDK19 (human)) of 100% and a kinase still bound, per cent of control (CDKL2 (human)) of 2%. For the same compound, the kinase still bound, per cent of control (CIT (human)) was 30%, the kinase still bound, per cent of control (CSNK1A1L (human)) was 32% and the kinase still bound, per cent of control (CSNK2A1 (human)) was 4.4%. For the same compound, the kinase still bound, per cent of control (DYRK1B (human)) was 2%, the kinase still bound, per cent of control [1] was 77% and the kinase still bound, per cent of control (EPHA2 (human)) was 27%. For the same compound, the kinase still bound, per cent of control (FGFR2 (human)) was 76%, the kinase still bound, per cent of control [2] was 26% and the kinase still bound, per cent of control (KIT (human)) was 10%. It also gave a kinase still bound, per cent of control [3] of 82%, a kinase still bound, per cent of control (MAK (human)) of 100% and a kinase still bound, per cent of control (MAP2K3 (human)) of 27%. It also gave a kinase still bound, per cent of control (MAP3K9 (human)) of 70%, a kinase still bound, per cent of control (MAPK13 (human)) of 100% and a kinase still bound, per cent of control (MAPK9 (human)) of 1.5%. For the same compound, the kinase still bound, per cent of control (MARK3 (human)) was 100%, the kinase still bound, per cent of control (MINK1 (human)) was 40% and the kinase still bound, per cent of control (MKNK1 (human)) was 51%. For the same compound, the kinase still bound, per cent of control (MST4 (human)) was 68%, the kinase still bound, per cent of control (NEK5 (human)) was 26% and the kinase still bound, per cent of control (NUAK1 (human)) was 100%. It also gave a kinase still bound, per cent of control (PDPK1 (human)) of 90%, a kinase still bound, per cent of control (PHKG1 (human)) of 55% and a kinase still bound, per cent of control (ROS1 (human)) of 25%. It also gave a kinase still bound, per cent of control (RPS6KA1 KD2 (human)) of 14%, a kinase still bound, per cent of control (SGK110 (human)) of 100% and a kinase still bound, per cent of control (SLK (human)) of 28%. It also gave a kinase still bound, per cent of control (STK32B (human)) of 100%, a kinase still bound, per cent of control (STK39 (human)) of 80% and a kinase still bound, per cent of control (TGFBR1 (human)) of 14%. It also gave a kinase still bound, per cent of control (TNK1 (human)) of 11%, a kinase still bound, per cent of control (TSSK1B (human)) of 60% and a kinase still bound, per cent of control (ULK1 (human)) of 6.6%. For the same compound, the kinase still bound, per cent of control (ULK3 (human)) was 10%, the kinase still bound, per cent of control (WEE1 (human)) was 80% and the kinase still bound, per cent of control (WEE2 (human)) was 100%.
In the case of `CCN(CC)CCCCNc1ncc2cc(-c3cc(OC)cc(OC)c3)c(NC(=O)NC(C)(C)C)nc2n1`, the kinase still bound, per cent of control (BMPR1B (human)) was 100%, the kinase still bound, per cent of control (BRAF (human)) was 100% and the kinase still bound, per cent of control (CDK19 (human)) was 100%. It also gave a kinase still bound, per cent of control (CIT (human)) of 100%, a kinase still bound, per cent of control (CSNK1A1L (human)) of 100% and a kinase still bound, per cent of control (CSNK2A1 (human)) of 100%. For the same compound, the kinase still bound, per cent of control (DYRK1B (human)) was 100%, the kinase still bound, per cent of control (EPHA2 (human)) was 100% and the kinase still bound, per cent of control [2] was 100%. For the same compound, the kinase still bound, per cent of control (KIT (human)) was 100%, the kinase still bound, per cent of control [3] was 100% and the kinase still bound, per cent of control (MAP2K3 (human)) was 100%. It also gave a kinase still bound, per cent of control (MAP3K9 (human)) of 100%, a kinase still bound, per cent of control (MAPK9 (human)) of 100% and a kinase still bound, per cent of control (MARK3 (human)) of 100%. The kinase still bound, per cent of control (MKNK1 (human)) was 100%, the kinase still bound, per cent of control (MST4 (human)) was 100% and the kinase still bound, per cent of control (NEK5 (human)) was 100%. The kinase still bound, per cent of control (NUAK1 (human)) was 100%, the kinase still bound, per cent of control (PDPK1 (human)) was 100% and the kinase still bound, per cent of control (PHKG1 (human)) was 100%. It also gave a kinase still bound, per cent of control (ROS1 (human)) of 100%, a kinase still bound, per cent of control (RPS6KA1 KD2 (human)) of 100% and a kinase still bound, per cent of control (SLK (human)) of 100%. The kinase still bound, per cent of control (STK32B (human)) was 100%, the kinase still bound, per cent of control (TGFBR1 (human)) was 100% and the kinase still bound, per cent of control (TNK1 (human)) was 100%. The kinase still bound, per cent of control (TSSK1B (human)) was 100% and the kinase still bound, per cent of control (WEE1 (human)) was 100%.

Source: the kinase profiling compilation of Christmann-Franck et al. (2016)
